Experimental findings from patent US9884063B2, “Amido-substituted azole compounds” (Bayer Pharma Aktiengesellschaft, priority 2014, dated 2018) are described below.

A word on the IC50: it is the point on the concentration scale where inhibition reaches its midpoint. A higher IC50 goes with weaker potency in that assay.

Structures can show the parent of a compound that is named as a salt.

One test has as its target T1, TNKS1 (Homo sapiens, UniProt O95271).
T1 sequence (O95271 1-1327): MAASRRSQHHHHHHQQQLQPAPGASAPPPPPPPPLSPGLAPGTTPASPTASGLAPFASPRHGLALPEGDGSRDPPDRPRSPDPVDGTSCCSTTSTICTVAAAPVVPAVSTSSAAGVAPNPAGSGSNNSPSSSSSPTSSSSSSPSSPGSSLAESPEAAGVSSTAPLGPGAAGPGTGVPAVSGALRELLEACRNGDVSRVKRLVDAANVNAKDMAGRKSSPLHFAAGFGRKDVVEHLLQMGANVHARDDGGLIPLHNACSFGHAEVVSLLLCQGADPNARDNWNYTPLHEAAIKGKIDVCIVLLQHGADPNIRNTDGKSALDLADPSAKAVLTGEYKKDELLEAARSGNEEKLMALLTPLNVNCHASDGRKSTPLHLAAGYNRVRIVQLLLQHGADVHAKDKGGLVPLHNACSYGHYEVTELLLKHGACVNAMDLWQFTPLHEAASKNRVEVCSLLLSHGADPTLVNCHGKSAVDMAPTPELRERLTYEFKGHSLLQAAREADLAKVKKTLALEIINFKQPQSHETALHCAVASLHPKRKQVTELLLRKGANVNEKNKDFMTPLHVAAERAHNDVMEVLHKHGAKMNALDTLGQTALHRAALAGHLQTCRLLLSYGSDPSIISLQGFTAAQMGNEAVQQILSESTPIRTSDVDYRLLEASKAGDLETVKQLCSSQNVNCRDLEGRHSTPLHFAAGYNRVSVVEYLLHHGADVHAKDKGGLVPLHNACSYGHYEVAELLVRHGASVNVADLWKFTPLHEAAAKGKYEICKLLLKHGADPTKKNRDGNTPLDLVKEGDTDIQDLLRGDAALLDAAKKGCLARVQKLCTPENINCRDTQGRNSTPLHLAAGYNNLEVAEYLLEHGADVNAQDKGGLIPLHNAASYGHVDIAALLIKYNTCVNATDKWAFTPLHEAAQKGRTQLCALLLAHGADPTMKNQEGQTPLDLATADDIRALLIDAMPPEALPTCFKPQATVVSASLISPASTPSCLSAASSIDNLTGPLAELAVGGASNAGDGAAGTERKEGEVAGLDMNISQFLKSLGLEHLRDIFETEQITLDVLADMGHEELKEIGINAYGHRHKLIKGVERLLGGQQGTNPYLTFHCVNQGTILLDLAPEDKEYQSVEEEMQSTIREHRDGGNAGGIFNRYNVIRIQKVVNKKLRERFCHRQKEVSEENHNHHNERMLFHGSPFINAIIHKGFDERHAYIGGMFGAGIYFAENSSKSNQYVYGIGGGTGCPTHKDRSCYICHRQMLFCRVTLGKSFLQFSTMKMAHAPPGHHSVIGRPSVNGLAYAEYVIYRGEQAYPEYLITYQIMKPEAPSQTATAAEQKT
Nature of the test: Modified TNKS1 Assay 3 (BPS kit #80573, biotin-NAD+, 96 well). It is filed as biochemical. To be noted: human TNKS1, BPS kit #80573, 96 well. On the procedure:
The potency of the compounds against human TNKS1 according to the invention was assessed using a commercially available biotin/streptavidin binding assay kits from BPS Bioscience, San Diego, USA (Catalog #80573 for TNKS1). The incorporation of a biotin-labeled NAD+ during the […] catalyzed ribosylation of a suitable protein substrate was detected using with a streptavidin-HRP coupled chemi-luminescent readout. The intensity of the readout signal is proportional to the incorporated NAD^+. Inhibition of TNKS1 leads to a decreased incorporation of NAD^+ and consequently to a lower readout signal intensity in the corresponding TNKS1 assays. The concentration of a test compound that inhibits the enzyme activity by 50% (corresponds to half of the normed readout signal intensity) is reported as IC50. The assay was conducted in a 96 well MTP format according to the manufacturer's protocol and using a BMG Pherastar MTP reader [BMG-Labtech, Offenburg, Germany].

For test [1], the system named is wildtype Wnt signaling cascade. As to the kind of experiment: HEK293 TOP Assay (Super TopFlash luciferase reporter, Wnt-3a stimulated). Format: cell-based. The conditions noted are these: Homo sapiens, HEK293 TOP reporter cell line, Wnt-3a at EC50, 16 hours incubation, compound dilution series 50 μM to 15 nM. The method in brief:
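Compounds (50 μM down to 15 nM, 3.16-fold steps, in CAFTY buffer pH 7.4, 2 mM Ca2+, 0.01% BSA) tested in parallel on TOP and FOP HEK293 reporter lines to define selective wildtype Wnt inhibition. Pathway driven by recombinant human Wnt-3a applied at 2500–5 ng/ml in two-fold dilutions.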

The test system of test [2] is HEK293 FOP control reporter cell line. As to the kind of experiment: HEK293 FOP Assay (FOP control vector luciferase reporter). The conditions noted are these: Homo sapiens, HEK293 FOP control reporter cell line, 16 hours incubation, compound dilution series 50 μM to 15 nM. It is filed as cell-based. The method in brief:
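Compound series 50 μM to 15 nM, 3.16-fold steps, were diluted in CAFTY buffer (pH 7.4, 2 mM Ca2+, 0.01% BSA) and tested alongside the TOP reporter line. Human Wnt-3a was added at 2500–5 ng/ml in two-fold steps. The control HEK293 line stably holds an FOP vector whose TCF elements are randomized and non-functional.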
On the technique in general: Reporter assays use an easily measured gene product as a stand-in for the process of interest.

As for `CN1CC2(C1)CN(C(=O)c1nc[nH]c1C(=O)Nc1ccc(NC(=O)c3cc(F)c(F)cc3Cl)cc1)C2` [Example 50, N N-{4-[(2-chloro-4,5-difluorobenzoyl)amino]phenyl}-4-[(6-methyl-2,6-diazaspiro[3.3]hept-2-yl)carbonyl]-1H-imidazole-5-carboxamide], the IC50 against TNKS1 is 130 nM; in test [1] (HEK293, 16 h), 120 nM; in test [2] it was 13000 nM.
The corresponding values for `CC1CCCC(C)N1CCNC(=O)c1nc[nH]c1C(=O)Nc1ccc(NC(=O)c2ccc(F)cc2Cl)cc1` (stereo not drawn) [Example 401, N^5-{4-[(2-chloro-4-fluorobenzoyl)amino]phenyl}-N^4-[2-(2,6-dimethylpiperidin-1-yl)ethyl]-1H-imidazole-4,5-dicarboxamide] are 180 nM, 330 nM and 21000 nM.
`O=C(Nc1ccc(NC(=O)c2[nH]cnc2C(=O)NCCN2CCCCC2)cc1)c1ccc(F)cc1Cl` [Example 127, N^5-{4-[(2-chloro-4-fluorobenzoyl)amino]phenyl}-N^4-[2-(piperidin-1-yl)ethyl]-1H-imidazole-4,5-dicarboxamide hydrochloride]: the IC50 was 2 nM on TNKS1; 10 nM in test [1]; 50000 nM in test [2] (HEK293, 16 h).
Consider `CN(C)CC(C)(C)CNC(=O)c1nc[nH]c1C(=O)Nc1ccc(NC(=O)c2ccc(F)cc2Cl)cc1` [Example 396, N^5-{4-[(2-chloro-4-fluorobenzoyl)amino]phenyl}-N^4-[3-(dimethylamino)-2,2-dimethylpropyl]-1H-imidazole-4,5-dicarboxamide], for which the IC50 against TNKS1 is 180 nM; in test [1] (HEK293, 16 h) it was 340 nM; in test [2], 25000 nM.
As to `O=C(Nc1ccc(NC(=O)c2[nH]cnc2C(=O)NCCCCCN2CCCC2)cc1)c1ccc(F)cc1Cl` [Example 406, N^5-{4-[(2-chloro-4-fluorobenzoyl)amino]phenyl}-N^4-[5-(pyrrolidin-1-yl)pentyl]-1H-imidazole-4,5-dicarboxamide], the IC50 came out at 70 nM against TNKS1; 350 nM in test [1] (HEK293, 16 h); 26000 nM in test [2].
Regarding `CC(C)(N)CCNC(=O)c1[nH]cnc1C(=O)Nc1ccc(NC(=O)c2ccccc2Cl)cc1` [Example 283, N^5-(3-amino-3-methylbutyl)-N^4-{4-[(2-chlorobenzoyl)amino]phenyl}-1H-imidazole-4,5-dicarboxamide hydrochloride salt], the IC50 against TNKS1 is 110 nM; in test [1], 840 nM; in test [2] (HEK293, 16 h) it was 50000 nM.
For `CC1CCCCN1CCCNC(=O)c1nc[nH]c1C(=O)Nc1ccc(NC(=O)c2ccc(F)cc2Cl)cc1` (stereo not drawn) [Example 386, N^5-{4-[(2-chloro-4-fluorobenzoyl)amino]phenyl}-N^4-[3-(2-methylpiperidin-1-yl)propyl]-1H-imidazole-4,5-dicarboxamide], the IC50 turned out to be 60 nM at TNKS1; 460 nM in test [1] (HEK293, 16 h); 15000 nM in test [2].
The corresponding values for `CN(C)CCCCCNC(=O)c1nc[nH]c1C(=O)Nc1ccc(NC(=O)c2ccc(F)cc2Cl)cc1` [Example 378, N^5-{4-[(2-chloro-4-fluorobenzoyl)amino]phenyl}-N^4-[5-(dimethylamino)pentyl]-1H-imidazole-4,5-dicarboxamide] are 60 nM, 230 nM and 27000 nM.
Take `CCN1CCC(CNC(=O)c2nc[nH]c2C(=O)Nc2ccc(NC(=O)c3ccc(F)cc3Cl)cc2)CC1` [Example 409, N^5-{4-[(2-chloro-4-fluorobenzoyl)amino]phenyl}-N^4-[(1-ethylpiperidin-4-yl)methyl]-1H-imidazole-4,5-dicarboxamide]: the IC50 stood at 80 nM against TNKS1; 190 nM in test [1] (HEK293, 16 h); 32000 nM in test [2].
The corresponding values for `CCN(CC)CCCNC(=O)c1nc[nH]c1C(=O)Nc1ccc(NC(=O)c2ccc(F)cc2Cl)cc1` [Example 388, N^5-{4-[(2-chloro-4-fluorobenzoyl)amino]phenyl}-N^4-[3-(diethylamino)propyl]-1H-imidazole-4,5-dicarboxamide] are 30 nM, 440 nM and 17000 nM.
The matching figures for `CN1CCCCC1CNC(=O)c1nc[nH]c1C(=O)Nc1ccc(NC(=O)c2ccc(F)cc2Cl)cc1` (stereo not drawn) [Example 410, N^5-{4-[(2-chloro-4-fluorobenzoyl)amino]phenyl}-N^4-[(1-methylpiperidin-2-yl)methyl]-1H-imidazole-4,5-dicarboxamide]: 90 nM, 110 nM and 18000 nM.
